Patent US10543183B2, “Treatment and diagnosis of melanoma” (The Rockefeller University, priority 2012, dated 2020)
Counter-ions that a name gives are not always drawn.

Legend:
[1] = system: endothelial cells (HUVEC); assay: endothelial migration and chemotaxis assays; assay type: cell-based, human; conditions: cancer cell-free system
Protocol: Serum-starved HUVEC's were pulsed with Cell Tracker Red CMTPX dye for 45 minutes and seeded into HTS Fluoroblock trans-well inserts at a concentration of 1×10^5 HUVEC's in 0.5 mL starvation media per each insert. The assay was allowed to proceed for 16-18 hours at 37° C., and the inserts were processed and analyzed as described above (See Matrigel Invasion Assay).
HUVEC's were serum-starved in 0.2% FBS EGM-2 media for 16 hours and labeled with Cell Tracker Red CMTPX dye for 45 minutes. Meanwhile, the indicated amounts (1-5 μg) of recombinant human ApoE3 or BSA were mixed with 250 μL of matrigel (356231, BD Biosciences) and allowed to solidify at the bottom of a 24-well plate for 30 min. 250 μL of HUVEC EGM-2 media containing 0.2% FBS was then added to each matrigel-coated well, and […] HTS Fluoroblock inserts were fitted into each well. 1×10^5 HUVEC's, resuspended in 0.5 mL of starvation media, were seeded into each insert and allowed to migrate along the matrigel gradient for 16-18 hours at 37° C. Upon completion of the assay, the inserts were mounted on slides and analyzed as described above (See Matrigel Invasion Assay).

[2] = system: breast cancer, renal cell cancer and pancreatic cancer cell lines; assay: endothelial recruitment by other cancer types; assay type: cell-based, human
[3] = system: MeWo brain metastatic derivative cells; assay: brain metastasis assay, intracardiac injection; assay type: in vivo, mouse; conditions: oral, diet 100 mg/kg
Protocol: Melanoma cells used for in vivo metastasis assays were transduced with a stably expressed retroviral construct encoding a luciferase reporter gene (Ponomarev et al., 2004), allowing us to monitor the in vivo progression of melanoma cells by bioluminescence imaging. The following numbers of melanoma cells, resuspended in 100 μL of PBS, were injected intravenously via the tail-vein: 4×10^4 MeWo cells, 2.5×10^5 HT-144 cells, 2×10^5 SK-Mel-334.2 cells, 5×10^4B 16F10 cells, and 1×10^5YUMM cells. The MeWo, HT-144, and SK-Mel-334.2 cells were injected into 6-8 week-old sex-matched NOD scid mice, while the B16F10 and YUMM cells were injected into 6-8 week-old sex-matched C57BL/6 mice. In all experiments assessing at the effects of GW3965 on metastasis formation, mice were pre-treated on a control diet or a GW3965-supplemented diet (20 mg/kg) for 10 days. To assess the effect of GW3965 treatment on brain metastasis, 1×10^5 MeWo brain-metastatic derivatives were injected intracardially into athymic nude mice. Immediately following injection, mice were randomly assigned to a control diet or GW3965-supplemented diet (100 mg/kg). […]

[4] = system: MeWo, SK-Mel-2, SK-Mel-334.2, SK-Mel-239 human melanoma cells; assay: subcutaneous human melanoma tumor growth in immunocompromised mice; assay type: in vivo, mouse
[5] = system: Tyr::CreER; B-RafV600E/+; Ptenlox/+ and Ptenlox/lox mice; assay: genetically-initiated model of melanoma progression; assay type: in vivo, mouse
Protocol: The Tyr::CreER; B-Raf^V600E/+; Pten^lox/+/Tyr::CreER; B-Raf^V600E/+; Pten^lox/lox conditional model of melanoma progression was previously established and characterized by Dankort et al. (2009). Briefly, melanoma in these mice was induced at 6 weeks of age by intraperitoneally injecting 4-HT (H6278, 70% isomer, Sigma-Aldrich, St Louis, Mo.) at 25 mg/kg administered in peanut oil on three consecutive days. The 4-HT stock solution was prepared by dissolving it in 100% EtOH at 50 mg/mL by heating at 45° C. for 5 min and mixing. Once dissolved, the stock 4-HT solution was then diluted by 10-fold in peanut oil, yielding a 5 mg/mL 4-HT working solution that was then injected into mice. After the first 4-HT injection, mice were blindedly assigned to receive either a control diet or a diet supplemented with GW3965 (100 mg/kg). Mice were examined three times a week for the presence and progression of melanoma lesions. At day 35, dorsal skin samples were harvested from control-treated and GW3965-treated mice, fixed in 4% PFA and photographed at 10×. The percentage of pigmented melanoma lesion area out of the total skin area was quantified using ImageJ. For survival analyses, mice were monitored daily for melanoma progression and euthanized according to a standard body condition score, taking into account initial signs of moribund state and discomfort associated with the progression of melanoma burden. Post-mortem, the lungs, brains, and salivary glands were harvested and examined for the presence of macroscopic melanoma lesions.

MeWo melanoma cells = assay: orthotopic metastasis assay after tumor excision; assay type: in vivo, mouse; conditions: oral, chow 100 mg/kg for 1 month
Protocol: To determine the effect of GW3965 treatment on lung colonization by melanoma cells dissociated from an orthotopic site, 1×10^6 MeWo cells expressing a luciferase reporter were subcutaneously injected into both lower flanks of NOD Scid mice. Upon the formation of tumors measuring ˜300 mm^3 in volume, the tumors were excised and the mice were randomly assigned to a control diet or a GW3965-supplemented diet (100 mg/kg) treatment. One month after tumor excision, the lungs were extracted and lung colonization was measured by ex vivo bioluminescence imaging. To histologically confirm the extent of melanoma lung colonization, lungs were then fixed in 4% PFA overnight, paraffin-embedded, section into […] increments and stained for human vimentin (VP-V684, Vector Laboratories).

Compound | endothelial migration in trans-well and gradient-based chemotactic assay [1] | endothelial recruitment across breast, renal cell and pancreatic cancer [2] | brain colonization [3] | systemic dissemination [3] | overall survival time of tumor-bearing mice ([4]; B16F10, MeWo, SK-Mel-334.2 tumors, chow 100 mg/kg) | suppression of growth of SK-Mel-239 vemurafenib-resistant line ([4]; diet 100 mg/kg) [%] | survival of mice bearing vemurafenib-resistant melanoma burden ([4]; diet 100 mg/kg) | tumor growth inhibition, MeWo ([4]; oral administration) [%] | tumor growth inhibition, SK-Mel-2 ([4]; oral administration) [%] | tumor growth inhibition, SK-Mel-334.2 ([4]; oral administration) [%] | growth of in vivo-derived DTIC-resistant MeWo tumors ([4]; oral, diet 100 mg/kg) | number of lymphatic metastases detected post-mortem ([5]; Ptenlox/lox mice, chow 100 mg/kg) | tumor progression ([5]; oral, diet 100 mg/kg after melanoma initiation) | overall survival times ([5]; oral, diet 100 mg/kg, Ptenlox/+ and Ptenlox/lox mice) | inhibition of lung colonization by disseminated melanoma cells post-tumor excision (MeWo melanoma cells) [fold]
recombinant ApoE3: recombinant human ApoE3 (4696, BioVision) | sufficient to inhibit | inhibited |  |  |  |  |  |  |  |  |  |  |  |  | 
O=C(O)Cc1cccc(OCCCN(Cc2cccc(C(F)(F)F)c2Cl)CC(c2ccccc2)c2ccccc2)c1 [GW3965 2, 3-[3-[N-(2-Chloro-3-trifluoromethylbenzyl)-(2,2-diphenylethyl)amino]propyloxy] phenylacetic acid hydrochloride] |  |  | inhibited | inhibited | substantially prolonged | 72 | significantly prolonged | 70 | 49 | 73 | strongly inhibited | decrease | attenuated | significantly extended | 17
